Patent US7683168B2, “Compositions of novel opioid compounds and method of use thereof” (priority 2005, dated 2010)

Tests used:
mouse vas deferens = assay: electrically stimulated mouse vas deferens (MVD) ED50; type: cell-based; conditions: ED50, inhibition of electrically induced contractions
[1] = test system: seizure-like convulsions in mice; assay: mouse seizure-like convulsions; type: in vivo; conditions: 10 mg/kg IV
Experimental: Mouse Seizure-Like Convulsions and antinociception: The central (CNS) effects of the compound were tested with central delta receptor mediated seizure-like convulsions and central mu opioid receptor mediated antinociceptive effects in mice. Male CD-1 mice (Charles River, Raleigh, N.C.) weighing 20-25 g were used to determine the seizure-like convulsion and antinociception activities for compounds.
They were then observed for seizure-like convulsions for one hour following the treatment. A seizure-like event was recorded if a mouse had uncontrollable clonic (or tonic/clonic) muscle movements that encompassed its entire body, usually followed by a brief cataleptic period. Catalepsy was determined by placing the animal's front paws on a horizontal bar held 2-3 inches from the cage floor. Cataleptic animals made no attempt to remove their paws.

human mu opioid receptor = target: T1, human mu opioid receptor (Homo sapiens, UniProt P35372); assay: radioligand binding, human mu opioid receptor, CHO cell membranes; conditions: species not given, read-out: μ
T1 construct: purchased Perkin Elmer, Boston, Mass; 6110535; host or cells: CHO cells

human delta receptor = target: T2, human delta receptor (Homo sapiens, UniProt P41143); assay: radioligand binding, human delta receptor, HEK-293 cell membranes; conditions: cell not marked (rat), species not given, read-out: δ
T2 construct: purchased Perkin Elmer, Boston, Mass; 6110549; host or cells: HEK-293 cells
T2 sequence (P41143 whole entry): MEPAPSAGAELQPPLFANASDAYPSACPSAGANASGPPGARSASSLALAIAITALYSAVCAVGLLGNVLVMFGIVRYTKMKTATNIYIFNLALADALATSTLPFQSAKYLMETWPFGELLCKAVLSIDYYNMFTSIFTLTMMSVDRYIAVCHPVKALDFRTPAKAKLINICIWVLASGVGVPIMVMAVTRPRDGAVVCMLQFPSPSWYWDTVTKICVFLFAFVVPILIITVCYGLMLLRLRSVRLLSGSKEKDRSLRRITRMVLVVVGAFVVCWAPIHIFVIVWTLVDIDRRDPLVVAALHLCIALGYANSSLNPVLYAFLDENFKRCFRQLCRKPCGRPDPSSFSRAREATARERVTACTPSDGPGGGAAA

T1 sequence (P35372 whole entry): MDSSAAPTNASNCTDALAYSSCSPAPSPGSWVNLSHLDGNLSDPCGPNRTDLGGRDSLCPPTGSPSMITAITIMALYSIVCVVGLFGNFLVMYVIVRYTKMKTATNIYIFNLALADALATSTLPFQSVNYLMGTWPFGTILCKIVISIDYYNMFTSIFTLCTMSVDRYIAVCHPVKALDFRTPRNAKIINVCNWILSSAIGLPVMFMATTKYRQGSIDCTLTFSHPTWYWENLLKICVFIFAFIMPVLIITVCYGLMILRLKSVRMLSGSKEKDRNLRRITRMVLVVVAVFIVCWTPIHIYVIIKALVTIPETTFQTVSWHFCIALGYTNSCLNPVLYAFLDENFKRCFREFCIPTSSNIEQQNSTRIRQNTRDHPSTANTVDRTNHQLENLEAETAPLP

SMILES | EC50 (mouse vas deferens) [nM] | Seiz. [1] [% 10 mg/kg IV] | Ki (human mu opioid receptor) [nM] | Ki (human delta receptor) [nM]
C=CCN1C[C@H](C)N([C@@H](c2cccc(O)c2)c2cccc(C(=O)N3CCN(C(=O)OCC)CC3)c2)C[C@H]1C [Example 57, 4-{3-[(R)-((2S,5R)-4-Allyl-2,5-dimethylpiperazin-1-yl)(3-hydroxy-phenyl)methyl]benzoyl}piperazine-1-carboxylic acid ethyl ester] | 5.15 | 40 | 0.8 | 0.81
C=CCN1C[C@H](C)N([C@@H](c2cccc(O)c2)c2cccc(C(=O)N3CCNCC3)c2)C[C@H]1C [Example 58, {3-[(R)-((2S,5R)-4-Allyl-2,5-dimethyl-piperazin-1-yl)-(3-hydroxy-phenyl)-methyl]-phenyl}-piperazin-1-yl-methanone] | 12.1 | 0 | 1.1 | 5.1
CCOC(=O)N1CCN(C(=O)c2cccc([C@H](c3cccc(O)c3)N3C[C@@H](C)N(Cc4ccccc4)C[C@@H]3C)c2)CC1 [Example 62, 4-{3-[(R)-((2S,5R)-4-Benzyl-2,5-dimethyl-piperazin-1-yl)-(3-hydroxy-phenyl)-methyl]-benzoyl}-piperazine-1-carboxylic acid ethyl ester] | 6.78 | 70 | 1.7 | 2.2
C=CCN1C[C@H](C)N([C@@H](c2cccc(O)c2)c2cccc(C(=O)N3CCN(CC(=O)OCC)CC3)c2)C[C@H]1C [Example 63, (4-{3-[(R)-((2S,5R)-4-Allyl-2,5-dimethyl-piperazin-1-yl)-(3-hydroxy-phenyl)-methyl]-benzoyl}-piperazin-1-yl)-acetic acid ethyl ester] | 7.71 | 20 | 0.47 | 0.44
C=CCN1C[C@H](C)N([C@@H](c2cccc(O)c2)c2cccc(C(=O)N3CCN(CC(=O)O)CC3)c2)C[C@H]1C [Example 64, (4-{3-[(R)-((2S,5R)-4-Allyl-2,5-dimethyl-piperazin-1-yl)-(3-hydroxy-phenyl)-methyl]-benzoyl}-piperazin-1-yl)-acetic acid] | 5.18 | 30 | 9 | 0.79
C=CCN1C[C@H](C)N([C@@H](c2cccc(O)c2)c2cccc(C(=O)N3CCN(CCC(=O)OCC)CC3)c2)C[C@H]1C [Example 72, 3-(4-{3-[(R)-((2S,5R)-4-Allyl-2,5-dimethyl-piperazin-1-yl)-(3-hydroxy-phenyl)-methyl]-benzoyl}-piperazin-1-yl)-propionic acid ethyl ester] | 8.03 | 20 | 2.4 | 0.61
C=CCN1C[C@H](C)N([C@@H](c2cccc(O)c2)c2cccc(C(=O)N3CCN(CCC(=O)O)CC3)c2)C[C@H]1C [Example 73, 3-(4-{3-[(R)-((2S,5R)-4-Allyl-2,5-dimethyl-piperazin-1-yl)-(3-hydroxy-phenyl)-methyl]-benzoyl}-piperazin-1-yl)-propionic acid] | 2.28 | 0 | 17.1 | 2.6
C=CCN1C[C@H](C)N([C@@H](c2cccc(O)c2)c2cccc(C(=O)N3CCN(CCCC(=O)OCC)CC3)c2)C[C@H]1C [Example 74, (4-{3-[(R)-((2S,5R)-4-Allyl-2,5-dimethyl-piperazin-1-yl)-(3-hydroxy-phenyl)-methyl]-benzoyl}-piperazin-1-yl)-butyric acid ethyl ester] | 23.3 | 10 | 1.95 | 123
C[C@@H]1CN([C@@H](c2cccc(O)c2)c2cccc(C(=O)N3CCN(CCCC(=O)O)CC3)c2)[C@@H](C)CN1CC1CC1 [Example 78, 4-(4-{3-[(R)-((2S,5R)-4-Cyclopropylmethyl-2,5-dimethyl-piperazin-1-yl)-(3-hydroxy-phenyl)-methyl]-benzoyl}-piperazin-1-yl)-butyric acid] | 26.6 | 0 | 194 | 10.2
CCOC(=O)CCCN1CCN(C(=O)c2cccc([C@H](c3cccc(O)c3)N3C[C@@H](C)N(Cc4ccccc4)C[C@@H]3C)c2)CC1 [Example 79, 4-(4-{3-[(R)-((2S,5R)-4-Benzyl-2,5-dimethyl-piperazin-1-yl)-(3-hydroxy-phenyl)-methyl]-benzoyl}-piperazin-1-yl)-butyric acid ethyl ester] | 3.95 | 80 | 1.3 | 3.7
C[C@@H]1CN([C@@H](c2cccc(O)c2)c2cccc(C(=O)N3CCN(CCCC(=O)O)CC3)c2)[C@@H](C)CN1Cc1cccc(F)c1 [Example 82, 4-(4-{3-[(R)-((2S,5R)-4-(3-Fluorobenzyl)-2,5-dimethyl-piperazin-1-yl)-(3-hydroxy-phenyl)-methyl]-benzoyl}-piperazin-1-yl)-butyric acid] | 2.65 | 0 | 13.8 | 31.1
C=CCN1C[C@H](C)N([C@@H](c2cccc(O)c2)c2cccc(C(=O)N3CCN(CCCCC(=O)OCC)CC3)c2)C[C@H]1C [Example 83, 5-(4-{3-[(R)-((2S,5R)-4-Allyl-2,5-dimethyl-piperazin-1-yl)-(3-hydroxy-phenyl)-methyl]-benzoyl}-piperazin-1-yl)-pentanoic acid ethyl ester] | 11.8 | 30 | 8.9 | 10.7
CCOC(=O)CCCCN1CCN(C(=O)c2cccc([C@H](c3cccc(O)c3)N3C[C@@H](C)N(Cc4ccccc4)C[C@@H]3C)c2)CC1 [Example 86, 5-(4-{3-[(R)-[(2S,5R)-4-Benzyl-2,5-dimethyl-piperazin-1-yl]-(3-hydroxy-phenyl)-methyl]-benzoyl}-piperazin-1-yl)-pentanoic acid ethyl ester] | 12.6 | 60 | 9.1 | 3.1
C[C@@H]1CN([C@@H](c2cccc(O)c2)c2cccc(C(=O)N3CCN(CCCCC(=O)O)CC3)c2)[C@@H](C)CN1Cc1cccc(F)c1 [Example 88, 5-(4-{3-[(R)-((2S,5R)-4-(3-Fluorobenzyl)-2,5-dimethyl-piperazin-1-yl)-(3-hydroxy-phenyl)-methyl]-benzoyl}-piperazin-1-yl)-pentanoic acid] | 6.66 | 0 | 211 | 16.9
C=CCN1C[C@H](C)N([C@@H](c2cccc(O)c2)c2cccc(C(=O)N3CCN(Cc4ccc(C(=O)OC)cc4)CC3)c2)C[C@H]1C [Example 91, 4-(4-{3-[(R)-((2S,5R)-4-Allyl-2,5-dimethyl-piperazin-1-yl)-(3-hydroxy-phenyl)-methyl]-benzoyl}-piperazin-1-ylmethyl)-benzoic acid methyl ester] | 23.1 | 70 | 6.5 | 2.7
C=CCN1C[C@H](C)N([C@@H](c2cccc(O)c2)c2cccc(C(=O)N3CCN(CCCCCC(=O)O)CC3)c2)C[C@H]1C [Example 94, 6-(4-{3-[(R)-((2S,5R)-4-Allyl-2,5-dimethyl-piperazin-1-yl)-(3-hydroxy-phenyl)-methyl]-benzoyl}-piperazin-1-yl)-hexanoic acid] | 6.07 | 0 | 64.3 | 2.5
